Laboratory results reported in ChEMBL document CHEMBL3243923, “Linked Aryl Aryloxypropanolamines as a new class of lipid catabolis agents” (J Med Chem, 1978).
Activity calls are given as the source filed them. The calls are words filed in the database; no cut-off is given here.

Assays:
Rattus norvegicus [1] = species on record: Rattus norvegicus; assay: Toxicity in rat assessed as lymphopenia; format: organism-based; details: in vivo
Mus musculus [2] = assay: Antiobesity activity in mouse assessed as reduction in utero fat at 0.04% administered every day through diet for 10 days measured after day 10 relative to control; format: functional; design: scale not given: the % may be the effect or the level left
Mus musculus [3] = assay: Antiobesity activity in mouse assessed as reduction in utero fat at 0.01% administered every day through diet for 10 days measured after day 10 relative to control; format: functional; design: scale not given: the % may be the effect or the level left
Mus musculus [4] = assay: Reduction of plasma insulin level in mouse at 0.04% administered every day through diet for 10 days measured on day 10 by double antibody method relative to control; format: functional; design: scale not given: the % may be the effect or the level left
Mus musculus [5] = assay: Antiobesity activity in mouse assessed as reduction in utero fat administered every day through diet for 10 days measured after day 10; format: functional; details: 240 h
[6] = (§1) Chronic toxicity in po dosed mouse assessed as mortality administered as qd for 21 days; format: organism-based; details: in vivo, read-out: MNTD
[7] = Therapeutic index, ratio of MNTD for chronic toxicity in po dosed mouse to ED25 for antiobesity activity in mouse assessed as reduction in utero fat; format: organism-based; details: in vivo, read-out: TI
Mus musculus [8] = assay: Toxicity in mouse assessed as liver hypertrophy at 1000 mg/kg, po administered for 21 days; format: organism-based; design: dose 1000 mg/kg, route oral; details: in vivo, 504 h
Rattus norvegicus [9] = species on record: Rattus norvegicus; assay: Toxicity in rat assessed as estrogenic activity; format: organism-based; details: in vivo
Rhesus monkey = assay: Toxicity in monkey assessed as estrogenic activity; format: organism-based, Macaca mulatta; details: in vivo
Rattus norvegicus [10] = assay: Antiobesity activity in rat assessed as reduction in food intake at 80 mg/kg administered every day through diet for 5 weeks measured every week for 5 weeks relative to control; format: functional; design: scale not given: the % may be the effect or the level left
Rattus norvegicus [11] = assay: Antiobesity activity in rat assessed as reduction in food intake at 80 mg/kg, po qd administered for 5 days measured every day for 5 days relative to control; format: functional; design: scale not given: the % may be the effect or the level left
Rattus norvegicus [12] = assay: Antiobesity activity in rat assessed as reduction in body weight at 80 mg/kg administered every day through diet for 5 weeks measured for 5 weeks relative to control; format: functional; design: scale not given: the % may be the effect or the level left
Rattus norvegicus [13] = assay: Antiobesity activity in rat assessed as reduction in body weight at 80 mg/kg, po qd administered for 5 days measured on day 6 relative to control; format: functional; design: scale not given: the % may be the effect or the level left
Rattus norvegicus [14] = assay: Antiobesity activity in rat assessed as reduction in utero fat at 80 mg/kg administered every day through diet for 5 weeks measured after 5th week relative to control; format: functional; design: scale not given: the % may be the effect or the level left
Rattus norvegicus [15] = assay: Toxicity in rat assessed as increase in adrenal weight at 80 mg/kg administered every day through diet for 5 weeks measured after 5th week relative to control; format: organism-based; design: dose 80 mg/kg; details: in vivo, po, 840 h
Rattus norvegicus [16] = assay: Toxicity in rat assessed as increase in adrenal weight at 80 mg/kg, po qd administered for 5 days measured on day 6 relative to control; format: organism-based; design: dose 80 mg/kg, route oral; details: in vivo, 120 h
Rattus norvegicus [17] = assay: Toxicity in rat assessed as decrease in liver weight at 80 mg/kg administered every day through diet for 5 weeks measured after 5th week relative to control; format: organism-based; design: dose 80 mg/kg; scale not given: the % may be the effect or the level left; details: in vivo, po, 840 h
Rattus norvegicus [18] = assay: Toxicity in rat assessed as decrease in liver weight at 80 mg/kg, po qd administered for 5 days measured on day 6 relative to control; format: organism-based; design: dose 80 mg/kg, route oral; scale not given: the % may be the effect or the level left; details: in vivo, 120 h
Canis familiaris [19] = assay: Toxicity in Beagle dog assessed as emesis up to 150 mg/kg administered through gelatin capsule for every week for 6 weeks; format: organism-based, Canis lupus familiaris; design: dose 150 mg/kg; details: in vivo, 1008 h
Canis familiaris [20] = assay: Antiobesity activity in Beagle dog assessed as decrease in food intake at 4 mg/kg administered every day through gelatin capsule for 6 weeks measured every day 2 hrs post feeding relative to placebo control; format: functional, Canis lupus familiaris; design: scale not given: the % may be the effect or the level left
Canis familiaris [21] = assay: Antiobesity activity in Beagle dog assessed as decrease in body weight at 4 mg/kg administered every day through gelatin capsule for 6 weeks measured every week for 6 weeks relative to placebo control; format: functional, Canis lupus familiaris; design: scale not given: the % may be the effect or the level left
Mus musculus [22] = assay: Antiobesity activity in mouse assessed as reduction in utero fat at 0.08% administered every day through diet for 10 days measured after day 10 relative to control; format: functional; design: scale not given: the % may be the effect or the level left
Canis familiaris [23] = assay: Toxicity in Beagle dog assessed as emesis up to 10 mg/kg administered through gelatin capsule for every week for 6 weeks; format: organism-based, Canis lupus familiaris; design: dose 10 mg/kg; details: in vivo, 1008 h
Canis familiaris [24] = assay: Antiobesity activity in Beagle dog assessed as decrease in food intake at 4 mg/kg administered every day through gelatin capsule for 6 weeks measured 9 days post last dose; format: functional, organism-based; design: dose 4 mg/kg; details: Canis lupus familiaris
Mus musculus [25] = assay: Effect on blood glucose level in mouse at 0.04% administered every day through diet for 10 days measured on day 10 by glucose oxidase method; format: functional, organism-based
Mus musculus [26] = assay: Antiobesity activity in mouse assessed as reduction in utero fat at 0.02% administered every day through diet for 10 days measured after day 10 relative to control; format: functional; design: scale not given: the % may be the effect or the level left
Rattus norvegicus [27] = assay: Antiobesity activity in rat assessed as reduction in food intake at 100 mg/kg, po qd administered for 5 days measured every day for 5 days relative to control; format: functional; design: scale not given: the % may be the effect or the level left
Rattus norvegicus [28] = assay: Antiobesity activity in rat assessed as reduction in body weight at 100 mg/kg, po qd administered for 5 days measured on day 6 relative to control; format: functional; design: scale not given: the % may be the effect or the level left
Rattus norvegicus [29] = assay: Antiobesity activity in rat assessed as reduction in utero fat at 100 mg/kg, po qd administered for 5 days measured on day 6 relative to control; format: functional; design: scale not given: the % may be the effect or the level left
Rattus norvegicus [30] = assay: Toxicity in rat assessed as increase in adrenal weight at 100 mg/kg, po qd administered for 5 days measured on day 6 relative to control; format: organism-based; design: dose 100 mg/kg, route oral; details: in vivo, 120 h
Rattus norvegicus [31] = assay: Toxicity in rat assessed as increase in liver weight at 100 mg/kg, po qd administered for 5 days measured on day 6 relative to control; format: organism-based; design: dose 100 mg/kg, route oral; details: in vivo, 120 h
Mus musculus [32] = assay: Antiobesity activity in mouse assessed as reduction in utero fat at 0.005% administered every day through diet for 10 days measured after day 10 relative to control; format: functional; design: scale not given: the % may be the effect or the level left
Mus musculus [33] = assay: as §1; format: organism-based; details: in vivo, 504 h
Mus musculus [34] = assay: Effect on blood glucose level in mouse at 0.01% administered every day through diet for 10 days measured on day 10 by glucose oxidase method; format: functional, organism-based
Mus musculus [35] = assay: Reduction of plasma insulin level in mouse at 0.01% administered every day through diet for 10 days measured on day 10 by double antibody method relative to control; format: functional; design: scale not given: the % may be the effect or the level left

C[C@H](N)Cc1ccccc1 [DEXTROAMPHETAMINE]
Activity (Rattus norvegicus [1]): Toxic | Activity (Mus musculus [2]): 59% | Activity (Mus musculus [3]): 34%

CC(C)NCC(O)COc1c(C(C)(C)C)cc(/C=C/c2ccccc2)cc1C(C)(C)C (racemic) [listing 1 of 2 here]
Activity (Mus musculus [4]): 27% | Activity (Rattus norvegicus [1]): Toxic | Activity (Mus musculus [3]): 26% | ED25 (Mus musculus [5]): 10 mg/kg | MTD at 504 h [6]: 50 mg/kg | selectivity ratio [7]: 5 | Activity (Mus musculus [8]): Non-toxic | Activity (Rattus norvegicus [9]): Non-toxic | Activity (Rhesus monkey): Non-toxic | Activity (Rattus norvegicus [10]): 10% | Activity (Rattus norvegicus [11]): 79% | Activity (Rattus norvegicus [12]): 9% | Activity (Rattus norvegicus [13]): 10% | Activity (Rattus norvegicus [14]): 35% | Activity (Rattus norvegicus [15]): 16% | Activity (Rattus norvegicus [16]): 21% | Activity (Rattus norvegicus [17]): 3.4% | Activity (Rattus norvegicus [18]): 9% | Activity (Canis familiaris [19]): Toxic | Activity (Canis familiaris [20]): 40% | Activity (Canis familiaris [21]): 13%

CCNC(C)Cc1cccc(C(F)(F)F)c1 (stereo not drawn) [FENFLURAMINE]
Activity (Mus musculus [2]): inactive | Activity (Mus musculus [22]): 20% | Activity (Canis familiaris [23]): Non-toxic

CC(C)NCC(O)COc1c(C(C)(C)C)cc(/C=C/c2ccccc2)cc1C(C)(C)C (racemic) [listing 2 of 2 here]
Activity (Canis familiaris [24]): inactive | Activity (Mus musculus [25]): inactive

CC(C)NCC(O)COc1ccc(Oc2ccc(Cl)cc2)cc1 (stereo not drawn)
Activity (Mus musculus [26]): 25% | ED25 (Mus musculus [5]): 18 mg/kg | MTD at 504 h [6]: 100 mg/kg | selectivity ratio [7]: 5.5 | Activity (Mus musculus [8]): Non-toxic | Activity (Rattus norvegicus [27]): 22% | Activity (Rattus norvegicus [28]): 1% | Activity (Rattus norvegicus [29]): 18% | Activity (Rattus norvegicus [30]): 8% | Activity (Rattus norvegicus [31]): 11%

CC(C)NCC(O)COc1c(C(C)(C)C)cc(-c2cccs2)cc1C(C)(C)C.O=C(O)/C=C\C(=O)O (stereo not drawn)
Activity (Mus musculus [32]): 33% | Activity (Mus musculus [33]): Toxic

CC(C)NCC(O)COc1c(C(C)(C)C)cc(/C=C/c2cccs2)cc1C(C)(C)C (stereo not drawn)
Activity (Mus musculus [34]): inactive | Activity (Mus musculus [35]): 46% | Activity (Mus musculus [26]): 30% | ED25 (Mus musculus [5]): 6 mg/kg | MTD at 504 h [6]: < 25 mg/kg | selectivity ratio [7]: < 4.1 | Activity (Mus musculus [8]): Non-toxic
